{"source": "patent US8492426B1", "about": "“Use of carvedilol for treatment of diabetes mellitus” (priority 2012, dated 2013)", "key": {"[1]": {"test_system": "Type II diabetes mellitus patients", "test": "Group 2: Type II diabetes mellitus patients uncontrolled on diet and oral medication, Carvedilol used in place of insulin", "type": "in vivo, human", "method": "Data has been collected utilizing the various methods described herein and included for purposes of showing results and further exemplifying the preferred embodiments of this invention. A study was performed on two groups: Group 1 and Group 2. Both groups included patients with diabetes mellitus and a history of uncontrolled blood sugar. The patients of each group were between the ages of 40 and 85 and consisted of both males and females and various ethnicities. Group 1 consisted of patients that were already on insulin (humulin mix, novolog mix, etc.) and who were unable to control their blood sugar. The patients in Group 2 were taking oral medications, were unable to control their blood sugar, and needed insulin to regulate their disease.\nNormal blood sugar levels were considered to be 120 mg % (mg % is milligram per 100 cc blood), which was equivalent to 6.0 HbA1c before meals or while fasting. After the first visit and examination, the patients' blood sugar and HbA1c levels were reviewed. […] Then patients were requested to report their blood sugar weekly. […] HbA1c levels were checked approximately 2-3 months after controlling the blood sugar.\nGroup 2 consisted of Type II diabetes mellitus patients who could not control their blood sugar on diet nor oral medication and would need to start insulin. Carvedilol was used in place of insulin to control blood sugar as well as other anti-diabetic oral medications. • 1. […] Sitagliptin was then discontinued and the hypoglycemia subsequently disappeared. […] The last recorded HbA1c was 6.8 • 2. patient three had poorly controlled blood sugar but managed an HbA1c of 8.0 and mean fasting glucose of 183 mg %. They were taking three oral medications: Metformin 1000 mg BID, Sitagliptin 100 mg daily and Sulfonylurea. They were started on Carvedilol and their blood sugar came down to 90 mg %. […] Their HbA1c level is 6.5 • 3. […] They were prescribed Metformin and Glyburide Micro. They were also given Bayetta, however their blood sugar remained uncontrolled. […] Their HbA1c level is 8.4 • 4. […] The patient also suffered from severe Peripheral Neuritis. Their HbA1c was 10.2 in December 2011. The patient was taking Metformin 1000 mg twice a day, Sitagliptin 100 mg daily and Glyburide Micro 6 mg twice a day. The patient was started on Carvedilol in February 2012. Their HbA1c in late March 2012 was down to 8.2 with a mean plasma glucose of 189 mg %. […] Their HbA1c is now 7.8. • 5. […] They have been on Janumet […] twice a day, Glymeperide which was changed to Glyburide Micro 3 mg twice daily. […] Carvedilol was added to their regimen and their blood sugar was recently reported at 81 mg %. […] Their HbA1c level is 7.1"}, "[2]": {"test_system": "patients with diabetes mellitus already on insulin", "test": "Group 1: diabetes mellitus patients already on insulin with uncontrolled blood sugar, prescribed Carvedilol with diet", "type": "in vivo, human", "method": "Data has been collected utilizing the various methods described herein and included for purposes of showing results and further exemplifying the preferred embodiments of this invention. A study was performed on two groups: Group 1 and Group 2. Both groups included patients with diabetes mellitus and a history of uncontrolled blood sugar. The patients of each group were between the ages of 40 and 85 and consisted of both males and females and various ethnicities. Group 1 consisted of patients that were already on insulin (humulin mix, novolog mix, etc.) and who were unable to control their blood sugar. The patients in Group 2 were taking oral medications, were unable to control their blood sugar, and needed insulin to regulate their disease. Normal blood sugar levels were considered to be 120 mg % (mg % is milligram per 100 cc blood), which was equivalent to 6.0 HbA1c before meals or while fasting. After the first visit and examination, the patients' blood sugar and HbA1c levels were reviewed. […] Then patients were requested to report their blood sugar weekly. […] HbA1c levels were checked approximately 2-3 months after controlling the blood sugar. Group 1 data is presented below for patients with Type II diabetes mellitus who were already taking insulin and were unable to control their blood sugar. The data includes blood sugar and HbA1c levels before and after taking Carvedilol. • 1. JBM-65-M was first seen in January 2012. Their HbA1c was more than 9.0 and fasting plasma glucose was 282 mg %. They were taking 35 units at night of Lente insulin and regular insulin before each meal at a dosage of 10-30 units, on a sliding scale. They began taking an effective dosage of Carvedilol with a diet in February 2012. […] BS-81-F was taking 36 units of Humulin N twice a day in February 2012. Their HbA1c was 7.6 and mean plasma glucose was 171 mg %. They began taking an effective dosage of Carvedilol immediately. In April 2012 their HbA1c was 6.5 and their mean plasma glucose was 140 mg %. […] patient four is a Type I diabetic with two episodes of myocardial infarction and four stents post Percutaneous Transluminal Coronary Angioplasty (PTCA). In January 2012 […] HbA1c was 8.2 with a mean […] glucose of 203 mg %. They were taking 400 units of Novolog mix 70/30 in two divided doses. After Carvedilol and an improved diet, the dose of insulin has been reduced to a total of 90 units a day in two divided doses. Their HbA1c is the same but recent blood sugar was 134 mg %. • 4. […] They were taking Novolog 70/30 40 units twice a day. They were started on Carvedilol with an improved diet. […] Currently they are reporting a plasma blood glucose below 120 mg %. • 5. […] They were taking Novlog mix 70/30 20 units twice a day. […] Group 2"}}}
{"smiles": "COc1ccccc1OCCNCC(O)COc1cccc2[nH]c3ccccc3c12", "note": "(racemic) [Carvedilol, (±)-1-(Carbazol-4-yloxy-3-[[2-(o-methoxyphenoxy-)ethyl]amino]-2-propanol]", "values": [{"measurement": "other anti-diabetic medication after Carvedilol", "setting": "[1]; patient -76", "value": "able to stop Glyburide Micro"}, {"measurement": "blood sugar", "setting": "[1]; patient -76, Carvedilol added to regimen, before: 273 mg % after cortisone shot, mean plasma glucose 163 mg %", "value": 81, "unit": "mg %"}, {"measurement": "HbA1c", "setting": "[1]; patient -76, on Carvedilol, before: 8.3", "value": 7.1}, {"measurement": "HbA1c", "setting": "[1]; patient eight, started Carvedilol recently, before: 8.5", "value": 8.4}, {"measurement": "blood sugar", "setting": "[1]; patient eight, started Carvedilol recently, before: fasting plasma glucose 197 mg %, uncontrolled on Metformin, Glyburide Micro, Bayetta", "value": "reached normal levels"}, {"measurement": "adverse effect", "setting": "[1]; patient one, Carvedilol taken together with Sitagliptin, disappeared after Sitagliptin was discontinued", "value": "hypoglycemia"}, {"measurement": "last recorded HbA1c", "setting": "[1]; patient one, Carvedilol, Sitagliptin discontinued", "value": 6.8}, {"measurement": "blood sugar control", "setting": "[1]; patient one, Carvedilol, Sitagliptin discontinued, before: blood sugar 200 mg %", "value": "controlled the patient's blood sugar"}, {"measurement": "other anti-diabetic medication after Carvedilol", "setting": "[1]; patient six", "value": "stopped taking Glyburide Micro"}, {"measurement": "mean plasma glucose", "setting": "[1]; patient six, late March 2012, Carvedilol since February 2012", "value": 189, "unit": "mg %"}, {"measurement": "HbA1c", "setting": "[1]; patient six, late March 2012, Carvedilol since February 2012, before (December 2011): 10.2", "value": 8.2}, {"measurement": "blood sugar", "setting": "[1]; patient six, more recently reported", "value": 95, "unit": "mg %"}, {"measurement": "HbA1c", "setting": "[1]; patient six, now, after stopping Glyburide Micro", "value": 7.8}, {"measurement": "other anti-diabetic medication after Carvedilol", "setting": "[1]; patient three", "value": "discontinued use of Sitagliptin"}, {"measurement": "blood sugar", "setting": "[1]; patient three, Carvedilol added to Metformin, Sitagliptin, Sulfonylurea, before: mean fasting glucose 183 mg %", "value": 90, "unit": "mg %"}, {"measurement": "HbA1c", "setting": "[1]; patient three, on Carvedilol, Sitagliptin discontinued, before: 8.0", "value": 6.5}, {"measurement": "fasting plasma glucose", "setting": "[2]; patient five, April 2012, Carvedilol with diet since February 2012, before: 282 mg %", "value": 122, "unit": "mg %"}, {"measurement": "HbA1c", "setting": "[2]; patient five, April 2012, Carvedilol with diet since February 2012, before: more than 9.0", "value": 5.5}, {"measurement": "insulin use after Carvedilol", "setting": "[2]; patient five, by April 2012, before: 35 units Lente at night plus 10-30 units regular insulin before each meal", "value": "taken off insulin completely"}, {"measurement": "dose of insulin after Carvedilol", "setting": "[2]; patient four, Type I diabetic, Carvedilol and improved diet, two divided doses, before: 400 units Novolog mix 70/30", "value": 90, "unit": "units a day"}, {"measurement": "HbA1c", "setting": "[2]; patient four, Type I diabetic, after Carvedilol and improved diet, before: 8.2", "value": "the same"}, {"measurement": "recent blood sugar", "setting": "[2]; patient four, Type I diabetic, after Carvedilol and improved diet, before: mean plasma glucose 203 mg %", "value": 134, "unit": "mg %"}, {"measurement": "mean plasma glucose", "setting": "[2]; patient nine, April 2012, Carvedilol since February 2012, before: 171 mg %", "value": 140, "unit": "mg %"}, {"measurement": "HbA1c", "setting": "[2]; patient nine, April 2012, Carvedilol since February 2012, before: 7.6", "value": 6.5}, {"measurement": "insulin use after Carvedilol", "setting": "[2]; patient nine, by April 2012, before: 36 units Humulin N twice a day", "value": "taken off of insulin completely"}, {"measurement": "plasma glucose", "setting": "[2]; patient seven, renal failure, after five weeks on Carvedilol, off insulin, before: 249 mg %", "value": "below 120 mg %"}, {"measurement": "HbA1c corresponding to plasma glucose", "setting": "[2]; patient seven, after five weeks on Carvedilol, before: 10.3", "value": 6.0}, {"measurement": "insulin use after Carvedilol", "setting": "[2]; patient seven, after five weeks on Carvedilol, before: Novlog mix 70/30 20 units twice a day", "value": "taken off insulin"}, {"measurement": "HbA1c", "setting": "[2]; patient two, April 2012, Carvedilol with improved diet, off insulin, before (December 2011): 11.4", "value": 8.6}, {"measurement": "plasma blood glucose", "setting": "[2]; patient two, April 2012, before: 280 mg %", "value": 200, "unit": "mg %"}, {"measurement": "insulin use after Carvedilol", "setting": "[2]; patient two, before: Novolog 70/30 40 units twice a day", "value": "came off of insulin"}, {"measurement": "plasma blood glucose", "setting": "[2]; patient two, currently reported", "value": "below 120 mg %"}]}
